Reference: patent publication US20240294550A1, “8-OXA-3-AZABICYCLO[3.2.1]OCTANE COMPOUNDS OR SALT THEREOF, AND PREPARATION METHOD AND USE THEREOF” (LITTDD MEDICINES LTD, priority 2021, published 2024)
In brackets after ≈: the same amount, converted by molar mass. Read-outs that look alike come from different tables or passages of the source.

Experiments:
[1] = Equilibrium solubility in FaSSIF; type: physicochemical; conditions: thermodynamic from solid; FaSSIF pH 6.5, shaken 24 hours
Procedure: The compound powder was weighed into a volumetric flask, 450 μL of pH 6.5 FaSSIF solution was added to obtain a supersaturated suspension, the samples were vortexed for at least 2 minutes, and the volumetric flasks were shaken on a vibrating screen at 800 rpm for 24 hours, and then centrifuged at 4000 rpm for 20 minutes. The compressed filtrate was added to a HPLC system, and the concentrations were calculated by a standard curve method.

LOVO cells = assay: Cell proliferation assay (CellTiter-Glo); type: cell-based; conditions: Homo sapiens, 96 hours
Procedure: The cell proliferation inhibition effect of the compound of the invention was tested using CellTiter-Glo™ cell viability assay kit. This kit uses luciferase as the detector. During the luminescence process, the luciferase requires the participation of ATP. CellTiter-Glo™ reagent was added to the cell culture medium, and the luminescence value was measured. The light signal is proportional to the amount of ATP present in the system, and ATP positively correlates with the number of viable cells present, thus the cell proliferation activity is measured.
Cell culture and seeding: LOVO cells in logarithmic growth phase (human colon carcinoma cells) (ATCC CCL-229) were harvested and counted using a platelet counter. Trypan blue exclusion method was used to detect the cell viability to ensure that the cell viability was above 90%. 90 μL of cell suspension (RPMI1640+10% fetal bovine serum) was added to a 96-well transparent flat-bottom black-wall plate (Thermo, 165305) respectively, and the cell concentration was adjusted to 3000/well/90 μl. Cells in the 96-well plate were incubated overnight at 37° C., 5% CO2 with 95% humidity (Thermo, Model 3100 Series).
Firstly, DMSO was used as the solvent to prepare 10 mM mother solution of the test compounds, and then PBS was used to dilute 100 times to prepare a solution of 10 times of final concentration, the highest concentration was 100 μM. 10 μL solution of the test compounds was added to each well of the 96 well plate inoculated with cells, namely the solution was further diluted 10 times to reach the final concentration of 10 μM. Starting from 10 μM, the final concentration of the test compound was 3-fold serially diluted, with 9 concentrations in total with 3 triplicates for each concentration. The 96 well plates with the test compounds and cells were incubated at 37° C., 5% CO2 and 95% humidity for 96 hours, and then CellTiter Glo analysis was performed.
CellTiter-Glo Reagents (CellTiter Glo R Luminescent Cell Viability Assay, Promega, G7572) were melted and the 96-well plates were equilibrated to room temperature for 30 minutes. An equal volume of CellTiter-Glo solution was added to each well, and the cells were lysed by shaking on the fixed orbit shaker for 5 minutes. The assay plates were left at room temperature for 20 minutes to stabilize the luminescence signal, and the luminescence signals were read using the SpectraMax multi-labeled microplate detector (MD, M3).
Data were analyzed using GraphPad Prism 7.0 software, fitted with non-linear S-curve regression to derive the dose-response curves, and IC50 values were calculated therefrom.
Cell survival rate (%)=(LumDrug to be tested−LumCulture medium control)/(LumCell control−LumCulture medium control)×100%

ATR = ATR (Homo sapiens (Human), UniProt Q13535); assay: ATR kinase inhibition assay (HTRF); type: biochemical; conditions: p53 substrate, ATP 150 nM
Procedure: This experiment adopted Homogeneous time-resolved fluorescence technology (HTRF®) of Cisbio Company for assay.
Experiment method: buffers were prepared as follows:
Preparation of solutions of the test compounds: The example compounds shown in the table below were prepared into solutions using DMSO as solvent, the stock solution typically being 10 mM. The maximum starting concentration in this experiment was 3 μM, DMSO 3-fold serial dilutions for concentrations, the serially diluted solution was added to each well of the corresponding 384-well plate (geriner bio-one, Cat #784075) to give final concentrations of 3000, 1000, 333, 111, 37, 12.3, 4.12, 1.37, 0.457, 0.152 nM, respectively, and the corresponding amount of DMSO was added to the additional wells to be used as negative or positive control wells, respectively.
The enzyme and substrate were separately dissolved and diluted in two tubes with the buffer prepared above at the following concentrations:
5 μL of the ATR protein solution from tube A was added to the compound-containing wells and the negative control wells in the assay plates using an electric multichannel pipettor, and the same volume of the prepared buffer (medium only, no enzyme) was added to the positive control wells. The plates were centrifuged for one minute at 1000 rpm, and then placed in an incubator at 25° C. for 15 minutes. 5 μL of the substrate mix solution from tube B was added to the positive control well, negative control well and the compound-containing well of the assay plates in the same manner, centrifuged and incubated at 25° C. for 90 minutes.
During the reaction, after ATR phosphorylated the substrate p53, two antibodies were added. Among them, anti-phospho-p53-Eu, as an energy donor, can specifically bind to the phosphorylation site of p53, while anti-GST-d2, as an energy receptor, can specifically bind to the GST-tagged p53. Upon excitation by a laser with certain wavelength (the excitation wavelength in this experiment is 340 nm), the energy donor can emit emission light of 615 nm, and when the energy donor and the energy receptor are close enough in space (that is, two antibodies are connected to p53 at the same time), energy transfer can occur between the energy donor and the energy receptor, so that the energy receptor can emit emission light of 665 nm. The two emission lights were detected by a plate reader, and the ratio of the signals at 665 nm and 615 nm was calculated. The IC50 of the samples tested can be obtained by plotting and calculation.
10 μL per well of the detection solution was added to the positive control, negative control and compound wells of the assay plate using an electric multichannel pipette, centrifuged and incubated overnight at 4° C., and read with the plate reader Envision 2104.
Compound inhibition rate was calculated using interpolation. The mean values of the positive and negative controls were calculated respectively, and the following formula was used to calculate the inhibition rates of the compounds:
Inhibition rate Minimum response+(Compound concentration ^Curve slope)*(Maximum response−Minimum response)/(Compound concentration^Curve slope+Half inhibition concentration ^Curve slope)
The IC50 value of each compound to enzyme activity was obtained.

[2] = Pharmacokinetic (PK) assay in mice; type: in vivo; conditions: CD-1 mice; for half-life / Vd / bioavailability / C0 / AUC(0-t) / Cmax: mouse, plasma; for Vd: read-out: Vss; for bioavailability: Po dose 5 mg/kg vs IV dose 1 mg/kg; for AUC(0-t): read-out: AUC0-24 h
Procedure: The PK of each compound was determined as follows: 6 CD-1 mice (obtained from Shanghai Lingchang Biotechnology Co., Ltd.) were divided into two groups, 3 mice in each group. […] Blood samples were collected from saphenous vein of lower leg in each group at 0, 0.083, 0.25, 0.5, 1, 2, 4, 6, 8 and 24 h after administration. Approximately 40 μL of the blood samples were collected in anticoagulant tubes containing EDTA-K2. Immediately after collection, the tubes were inverted at least 5 times to ensure adequate mixing, and then placed on ice. The blood samples collected at each time point were centrifuged at 4° C., 8000 rpm for 5 minutes to obtain plasma. Another 1.5 mL centrifuge tube was marked with the compound name, animal number, and time point, and the plasma was transferred to this tube. The plasma was stored at −80° C. until analysis.
Compound concentrations in plasma were determined by UPLC-MS/MS method, and the pharmacokinetic parameters were calculated by Phoenix WinNolin 6.4 pharmacokinetic software on the obtained data.

[3] = Metabolic stability in mouse liver microsomes; type: in vitro ADME, CD-1 mice; conditions: for half-life at 1 μM: CD-1, 1 μM compound; for microsomal CLint at 1 μM: CD-1, read-out: CLint(mic)
Procedure: (§1) Drug-like Properties: Concepts, Structure Design and Methods: from ADME to Toxicity Optimization. […] Screen. […] After incubation for appropriate time (such as 5, 10, 20, 30 and 60 minutes), samples were collected, and an appropriate termination solution (glacial acetonitrile containing 200 ng/mL tolbutamide and 200 ng/mL labetalol (i.e. acetonitrile at 4° C.)) was added to stop the reaction. Sample treatment (n=1): each appropriate sample was added, vortexed and centrifuged at high speed. The supernatants were collected, and detected the substrate by HPLC-MS/MS. The peak area at the 0 min was set as 100%. The peak areas at other time points were converted to percentages of the remaining amount. The natural logarithms of the percentage of remaining amount at each time point was plotted against the incubation time, and the slope (−k) was calculated. Then, Clint (μL/min/mg) and half-life (T½, min) of the compounds were calculated following the equation: Inherent clearance rate (Clint)=(k*Volume of incubation solution)/Mass of liver microsomes.

[4] = Metabolic stability in human liver microsomes; type: in vitro ADME; conditions: for half-life at 1 μM: 1 μM compound; for microsomal CLint at 1 μM: read-out: CLint(mic)
Procedure: as §1

Chain of ATR (Q13535 whole entry): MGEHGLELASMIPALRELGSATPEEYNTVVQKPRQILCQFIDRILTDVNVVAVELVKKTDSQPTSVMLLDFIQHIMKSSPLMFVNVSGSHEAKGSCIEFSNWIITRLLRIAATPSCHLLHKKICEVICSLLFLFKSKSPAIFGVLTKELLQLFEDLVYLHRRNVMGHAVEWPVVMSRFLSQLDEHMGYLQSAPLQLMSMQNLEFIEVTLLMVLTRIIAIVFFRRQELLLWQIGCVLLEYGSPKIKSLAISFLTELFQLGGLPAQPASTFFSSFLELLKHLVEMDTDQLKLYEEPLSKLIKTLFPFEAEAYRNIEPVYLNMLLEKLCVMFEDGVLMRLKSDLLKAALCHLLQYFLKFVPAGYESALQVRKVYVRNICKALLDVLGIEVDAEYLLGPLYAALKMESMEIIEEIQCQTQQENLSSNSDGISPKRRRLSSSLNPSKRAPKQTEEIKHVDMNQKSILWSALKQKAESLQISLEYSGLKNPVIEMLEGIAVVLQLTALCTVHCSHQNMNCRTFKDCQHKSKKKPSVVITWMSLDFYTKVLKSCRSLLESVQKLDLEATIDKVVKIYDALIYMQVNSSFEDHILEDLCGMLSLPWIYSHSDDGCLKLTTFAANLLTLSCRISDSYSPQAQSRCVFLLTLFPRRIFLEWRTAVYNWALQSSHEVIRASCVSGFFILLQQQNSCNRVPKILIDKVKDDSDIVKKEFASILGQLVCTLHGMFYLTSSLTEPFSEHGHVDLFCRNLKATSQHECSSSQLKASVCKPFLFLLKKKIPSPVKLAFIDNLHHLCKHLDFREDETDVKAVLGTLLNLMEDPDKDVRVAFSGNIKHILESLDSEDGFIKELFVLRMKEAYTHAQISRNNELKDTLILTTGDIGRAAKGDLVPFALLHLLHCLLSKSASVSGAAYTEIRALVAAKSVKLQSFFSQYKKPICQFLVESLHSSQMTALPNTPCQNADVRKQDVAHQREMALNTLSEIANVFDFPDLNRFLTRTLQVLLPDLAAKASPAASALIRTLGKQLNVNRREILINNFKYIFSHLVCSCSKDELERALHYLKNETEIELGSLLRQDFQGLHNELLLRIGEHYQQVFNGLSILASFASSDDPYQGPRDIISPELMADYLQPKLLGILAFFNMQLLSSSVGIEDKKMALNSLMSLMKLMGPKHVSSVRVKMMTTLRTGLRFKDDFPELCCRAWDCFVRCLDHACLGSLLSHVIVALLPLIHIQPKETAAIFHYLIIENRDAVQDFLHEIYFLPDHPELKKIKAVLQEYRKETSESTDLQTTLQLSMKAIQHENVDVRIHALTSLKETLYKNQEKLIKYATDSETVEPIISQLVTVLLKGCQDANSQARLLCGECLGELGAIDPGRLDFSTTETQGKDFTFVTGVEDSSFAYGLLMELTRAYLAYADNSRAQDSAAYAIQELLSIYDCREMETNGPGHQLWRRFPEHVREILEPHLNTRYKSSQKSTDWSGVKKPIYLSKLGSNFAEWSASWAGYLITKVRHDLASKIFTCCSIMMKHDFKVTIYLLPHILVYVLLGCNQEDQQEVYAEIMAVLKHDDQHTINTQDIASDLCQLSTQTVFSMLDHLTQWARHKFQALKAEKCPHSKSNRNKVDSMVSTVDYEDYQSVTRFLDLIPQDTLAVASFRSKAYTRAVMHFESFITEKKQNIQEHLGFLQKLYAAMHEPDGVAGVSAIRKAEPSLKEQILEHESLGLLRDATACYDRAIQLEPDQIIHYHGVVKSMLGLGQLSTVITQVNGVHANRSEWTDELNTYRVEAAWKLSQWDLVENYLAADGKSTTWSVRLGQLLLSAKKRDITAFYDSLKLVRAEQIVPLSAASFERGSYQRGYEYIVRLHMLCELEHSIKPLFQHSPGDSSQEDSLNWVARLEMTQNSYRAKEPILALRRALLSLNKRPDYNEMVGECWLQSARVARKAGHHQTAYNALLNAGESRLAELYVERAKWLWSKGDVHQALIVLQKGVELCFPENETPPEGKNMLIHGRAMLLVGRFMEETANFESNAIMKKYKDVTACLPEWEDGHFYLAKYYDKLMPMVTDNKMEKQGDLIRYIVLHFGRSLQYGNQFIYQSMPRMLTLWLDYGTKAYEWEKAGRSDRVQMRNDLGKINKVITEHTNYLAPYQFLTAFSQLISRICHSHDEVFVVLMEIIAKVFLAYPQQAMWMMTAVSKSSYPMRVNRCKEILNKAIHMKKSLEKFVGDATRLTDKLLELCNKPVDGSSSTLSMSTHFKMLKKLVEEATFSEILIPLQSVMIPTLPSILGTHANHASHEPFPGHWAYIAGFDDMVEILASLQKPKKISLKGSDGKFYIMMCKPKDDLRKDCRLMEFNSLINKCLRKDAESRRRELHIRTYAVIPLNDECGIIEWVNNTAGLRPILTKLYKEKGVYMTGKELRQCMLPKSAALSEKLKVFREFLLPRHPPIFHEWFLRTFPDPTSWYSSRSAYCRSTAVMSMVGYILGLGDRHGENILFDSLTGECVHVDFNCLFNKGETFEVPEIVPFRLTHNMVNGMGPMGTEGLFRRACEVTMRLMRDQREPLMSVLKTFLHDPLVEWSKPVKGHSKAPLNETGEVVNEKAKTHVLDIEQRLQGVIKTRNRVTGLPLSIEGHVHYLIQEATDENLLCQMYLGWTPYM
Chain of ATR (Q8WXE1 whole entry partner): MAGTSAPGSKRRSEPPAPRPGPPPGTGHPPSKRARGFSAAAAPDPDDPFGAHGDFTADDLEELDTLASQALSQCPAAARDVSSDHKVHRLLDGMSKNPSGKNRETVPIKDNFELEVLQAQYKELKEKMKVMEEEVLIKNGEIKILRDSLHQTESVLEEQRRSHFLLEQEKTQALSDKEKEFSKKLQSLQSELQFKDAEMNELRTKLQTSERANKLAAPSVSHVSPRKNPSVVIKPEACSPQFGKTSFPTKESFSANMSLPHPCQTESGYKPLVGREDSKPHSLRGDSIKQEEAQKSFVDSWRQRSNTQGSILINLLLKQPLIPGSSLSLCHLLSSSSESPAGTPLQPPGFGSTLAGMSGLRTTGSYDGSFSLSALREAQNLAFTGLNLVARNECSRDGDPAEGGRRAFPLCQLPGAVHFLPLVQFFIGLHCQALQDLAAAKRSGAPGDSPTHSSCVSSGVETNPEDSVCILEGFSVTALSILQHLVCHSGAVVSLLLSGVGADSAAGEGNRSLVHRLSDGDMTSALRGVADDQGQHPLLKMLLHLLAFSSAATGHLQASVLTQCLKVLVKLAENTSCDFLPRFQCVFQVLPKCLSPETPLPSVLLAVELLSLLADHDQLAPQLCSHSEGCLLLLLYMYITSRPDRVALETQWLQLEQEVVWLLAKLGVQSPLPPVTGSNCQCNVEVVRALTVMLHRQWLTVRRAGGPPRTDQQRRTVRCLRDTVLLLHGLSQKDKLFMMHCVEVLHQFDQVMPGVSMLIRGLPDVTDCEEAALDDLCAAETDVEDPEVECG

Row | solubility at 24 h [1] [µg/mL] | IC50 (LOVO cells) [nM] | IC50 (ATR) [nM] | CL_obs ([2]; IV dose 1 mg/kg) [mL/min/kg] | half-life ([2]; IV dose 1 mg/kg) [h] | Vd ([2]; IV dose 1 mg/kg) [L/kg] | half-life ([2]; Po dose 5 mg/kg) [h] | bioavailability [2] [%] | C0 ([2]; IV dose 1 mg/kg) [ng/mL] | AUC(0-t) ([2]; IV dose 1 mg/kg) [ng·h/mL] | Cmax ([2]; Po dose 5 mg/kg) [ng/mL] | AUC(0-t) ([2]; Po dose 5 mg/kg) [ng·h/mL] | half-life at 1 μM [3] [h] | microsomal CLint at 1 μM [3] [µL/min/mg] | Remain % (T = 60 min) [3] [%] | half-life at 1 μM [4] [h] | Remain % (T = 60 min) [4] [%] | microsomal CLint at 1 μM [4] [µL/min/mg] | Compound
1 | 1140 (≈ 2890 µM) | 67 | 5.9 | 10.0 | 7.56 | 1.03 | 3.99 | 77.5 | 2860 | 1650 | 3150 | 6460 |  |  |  |  |  |  | C[C@@H]1COCCN1c1cc(N2CC3CCC(C2)O3)nn2c(-c3cc[nH]n3)ncc12 [Example 3, 3-(4-((R)-3-methylmorpholino)-7-(1H-pyrazol-3-yl)imidazo[1,5-b]pyridazin-2-yl)-8-oxa-3-azabicyclo[3.2.1]octane]
2 |  | 384 | 8.2 | 6.15 | 3.45 | 0.75 | 2.58 | 69 | 2180 | 2700 | 3020 | 9330 | 1.12 | 20.5 | 56.6 | > 2.42 | 77.1 | < 9.6 | C[C@@H]1COCCN1c1cc(N2CC3CCC(C2)O3)nc2c1cnn2-c1cc[nH]n1 [Example 5, 3-(4-((R)-3-methylmorpholino)-1-(1H-pyrazol-3-yl)-1H-pyrazolo[3,4-b]pyridin-6-yl)-8-oxa-3-azabicyclo[3.2.1]octane]
3 |  | 97 | 13.2 |  |  |  |  |  |  |  |  |  | 0.56 | 41.3 | 30.7 | > 2.42 | 74.8 | < 9.6 | c1cc(-c2ncc3c(N4CC5CCC(C4)O5)cc(N4CC5CCC(C4)O5)nn23)n[nH]1 [Example 6, 3-(4-(8-oxa-3-azabicyclo[3.2.1]octan-3-yl)-7-(1H-pyrazol-3-yl)imidazo[1,5-b]pyridazin-2-yl)-8-oxa-3-azabicyclo[3.2.1]octane]
